Measurements published in US11566007B2, “Ras inhibitors” (Revolution Medicines, Inc., priority 2019, dated 2023).
Like-named read-outs stand apart in the source and are kept apart here.

Assays:
K-Ras G13C = K-Ras G13C (Homo sapiens (Human), UniProt P01116+P62937, G13C); assay: Ras-Raf (BRAF RBD) disruption / FRET / MOA assay, KRAS G13C; assay type: biochemical
Method in brief: (§1)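 Compounds, top final concentration 30 μM in 10-point 3-fold series, incubated 3 hours at 25° C with nucleotide-loaded Ras, cyclophilin A and BRAF RBD.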

KRAS G12D = KRAS G12D (Homo sapiens (Human), UniProt P01116+P62937, G12D); assay: Ras-Raf (BRAF RBD) disruption / FRET / MOA assay, KRAS G12D; assay type: biochemical; conditions: Ras-Raf disruption/FRET/MOA assay; class symbols; read-out: KRAS G12D FRET data IC50
Method in brief: as §1

NRAS G12C = NRAS G12C (Homo sapiens (Human), UniProt P01111+P62937, G12C); assay: Ras-Raf (BRAF RBD) disruption / FRET / MOA assay, NRAS G12C; assay type: biochemical; conditions: read-out: IC50* NRAS G12C FRET data
Method in brief: as §1

KRAS G13D = KRAS G13D (Homo sapiens (Human), UniProt P01116+P62937, G13D); assay: Ras-Raf (BRAF RBD) disruption / FRET / MOA assay, KRAS G13D; assay type: biochemical; conditions: read-out: IC50* KRAS G13D FRET data
Method in brief: as §1

KRAS G12S = KRAS G12S (Homo sapiens (Human), UniProt P01116+P62937, G12S); assay: Ras-Raf (BRAF RBD) disruption / FRET / MOA assay, KRAS G12S; assay type: biochemical; conditions: Ras-Raf disruption/FRET/MOA assay; class symbols; read-out: KRAS G12S FRET data IC50
Method in brief: as §1

KRAS Q61H = KRAS Q61H (Homo sapiens (Human), UniProt P01116+P62937, Q61H); assay: Ras-Raf (BRAF RBD) disruption / FRET / MOA assay, KRAS Q61H; assay type: biochemical; conditions: Ras-Raf disruption/FRET/MOA assay; class symbols; read-out: KRAS Q61H FRET data IC50
Method in brief: (§2)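 TR-FRET disruption of nucleotide-loaded Ras binding to BRAF RBD via compound-driven ternary complex with cyclophilin A. Compound as 10-point 3-fold series from 30 μM final, 3 h at 25° C, then anti-His Eu-W1024 (10 nM) and anti-GST allophycocyanin (50 nM) for 1.5 h. IC50 from decreased FRET ratio versus DMSO.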

KRAS G12V = KRAS G12V (Homo sapiens (Human), UniProt P01116+P62937, G12V); assay: Ras-Raf (BRAF RBD) disruption / FRET / MOA assay, KRAS G12V; assay type: biochemical; conditions: read-out: IC50* KRAS G12V FRET data
Method in brief: as §1

NRAS WT = NRAS WT (Homo sapiens (Human), UniProt P01111+P62937); assay: Ras-Raf (BRAF RBD) disruption / FRET / MOA assay, NRAS WT; assay type: biochemical; conditions: read-out: IC50* NRAS WT FRET data
Method in brief: as §2

NCI-H358 (K-Ras G12C) = assay: CellTiter-Glo cell viability assay, NCI-H358; assay type: cell-based, human; conditions: Homo sapiens, NCI-H358, 120 h
Method in brief: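 Compounds were dispensed directly onto K-Ras mutant cells and incubated until day 5, then plates were equilibrated to room temperature for about 30 minutes before CellTiter-Glo luminescence. Signals were normalized as (sample/average DMSO)*100 and fitted by four-parameter logistic fit.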

NRAS Q61R = NRAS Q61R (Homo sapiens (Human), UniProt P01111+P62937, Q61R); assay: Ras-Raf (BRAF RBD) disruption / FRET / MOA assay, NRAS Q61R; assay type: biochemical; conditions: NRAS Q61R; Ras-Raf disruption/FRET/MOA assay; read-out: IC50* NRAS Q61R FRET data
Method in brief: as §2

KRAS WT = KRAS WT (Homo sapiens (Human), UniProt P01116+P62937); assay: Ras-Raf (BRAF RBD) disruption / FRET / MOA assay, KRAS WT; assay type: biochemical; conditions: read-out: IC50* KRAS WT FRET data
Method in brief: as §1

K-Ras G12C = K-Ras G12C (Homo sapiens (Human), UniProt P01116+P62937, G12C); assay: Ras-Raf (BRAF RBD) disruption / FRET / MOA assay, KRAS G12C; assay type: biochemical
Method in brief: as §1

[1] = KRAS G13C, Ras-Raf disruption/FRET/MOA assay, read-out: IC50* KRAS G13C FRET data
[2] = KRAS G12C, Ras-Raf disruption/FRET/MOA assay, read-out: IC50* KRAS G12C FRET data
[3] = NCI-H358, 5-day treatment, class symbols, read-out: Additional H358 Cell Viability assay data (K-Ras G12C, IC50)

Chain of KRAS Q61H (P01116-2 other isoform, or with tags, fused parts or gaps Q61H): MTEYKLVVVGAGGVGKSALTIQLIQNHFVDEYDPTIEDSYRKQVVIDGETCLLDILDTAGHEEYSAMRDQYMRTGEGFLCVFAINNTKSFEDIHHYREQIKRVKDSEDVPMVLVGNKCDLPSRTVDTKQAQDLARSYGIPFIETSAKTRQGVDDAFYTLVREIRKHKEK
Chain of KRAS Q61H (P62937 whole entry): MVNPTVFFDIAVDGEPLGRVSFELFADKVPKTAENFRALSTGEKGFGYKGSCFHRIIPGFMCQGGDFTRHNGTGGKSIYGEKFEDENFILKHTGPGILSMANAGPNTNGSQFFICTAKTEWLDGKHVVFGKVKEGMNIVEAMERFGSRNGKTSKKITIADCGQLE
Chain of K-Ras G13C (P01116-2 other isoform, or with tags, fused parts or gaps G13C): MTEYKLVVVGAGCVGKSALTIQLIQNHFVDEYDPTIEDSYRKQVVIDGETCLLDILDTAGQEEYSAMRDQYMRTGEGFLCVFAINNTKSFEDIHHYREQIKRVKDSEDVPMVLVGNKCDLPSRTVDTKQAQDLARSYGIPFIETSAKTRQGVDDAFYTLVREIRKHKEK
Chain of K-Ras G13C (P62937 whole entry): as the sequence (P62937 whole entry) above
Chain of KRAS G12S (P01116-2 other isoform, or with tags, fused parts or gaps G12S): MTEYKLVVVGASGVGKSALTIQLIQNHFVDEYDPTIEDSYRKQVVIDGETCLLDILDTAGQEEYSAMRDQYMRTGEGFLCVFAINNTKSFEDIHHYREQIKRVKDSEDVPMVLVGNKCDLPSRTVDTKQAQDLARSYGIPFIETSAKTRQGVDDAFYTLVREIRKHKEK
Chain of KRAS G12S (P62937 whole entry): as the sequence (P62937 whole entry) above
Chain of KRAS G12D (P01116-2 other isoform, or with tags, fused parts or gaps G12D): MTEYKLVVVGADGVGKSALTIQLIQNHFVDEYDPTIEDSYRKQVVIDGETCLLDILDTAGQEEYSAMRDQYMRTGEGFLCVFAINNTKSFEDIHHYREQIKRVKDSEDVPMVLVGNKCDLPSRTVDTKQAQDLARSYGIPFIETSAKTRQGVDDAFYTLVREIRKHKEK
Chain of KRAS G12D (P62937 whole entry): as the sequence (P62937 whole entry) above
Chain of KRAS G13D (P01116-2 other isoform, or with tags, fused parts or gaps G13D): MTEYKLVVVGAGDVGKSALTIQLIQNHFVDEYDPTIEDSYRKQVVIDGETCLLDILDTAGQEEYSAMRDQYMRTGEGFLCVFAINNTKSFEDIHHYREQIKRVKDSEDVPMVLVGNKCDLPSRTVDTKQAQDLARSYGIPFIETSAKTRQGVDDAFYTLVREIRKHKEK
Chain of KRAS G13D (P62937 whole entry): as the sequence (P62937 whole entry) above
Chain of KRAS WT (P01116-2 other isoform, or with tags, fused parts or gaps): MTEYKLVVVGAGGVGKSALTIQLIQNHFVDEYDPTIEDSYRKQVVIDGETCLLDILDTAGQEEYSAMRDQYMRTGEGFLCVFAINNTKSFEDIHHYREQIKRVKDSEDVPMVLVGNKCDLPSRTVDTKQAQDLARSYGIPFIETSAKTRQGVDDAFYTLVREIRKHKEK
Chain of KRAS WT (P62937 whole entry): as the sequence (P62937 whole entry) above
Chain of NRAS WT (P01111 whole entry): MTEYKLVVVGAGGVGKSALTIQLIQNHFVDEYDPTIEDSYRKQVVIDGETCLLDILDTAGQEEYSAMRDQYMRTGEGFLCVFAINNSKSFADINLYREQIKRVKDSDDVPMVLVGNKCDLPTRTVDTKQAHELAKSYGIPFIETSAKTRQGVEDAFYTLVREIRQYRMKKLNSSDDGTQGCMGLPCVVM
Chain of NRAS WT (P62937 whole entry): as the sequence (P62937 whole entry) above
Chain of KRAS G12V (P01116-2 other isoform, or with tags, fused parts or gaps G12V): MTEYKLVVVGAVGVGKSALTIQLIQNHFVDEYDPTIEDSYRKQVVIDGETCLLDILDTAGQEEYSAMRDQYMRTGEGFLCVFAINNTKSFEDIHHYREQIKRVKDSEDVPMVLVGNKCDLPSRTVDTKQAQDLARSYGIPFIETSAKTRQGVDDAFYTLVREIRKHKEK
Chain of KRAS G12V (P62937 whole entry): as the sequence (P62937 whole entry) above
Chain of NRAS Q61R (P01111 whole entry Q61R): as the sequence (P01111 whole entry) above, with Q61R counted along it
Chain of NRAS Q61R (P62937 whole entry): as the sequence (P62937 whole entry) above
Chain of NRAS G12C (P01111 whole entry G12C): as the sequence (P01111 whole entry) above, with G12C counted along it
Chain of NRAS G12C (P62937 whole entry): as the sequence (P62937 whole entry) above
Chain of K-Ras G12C (P01116-2 other isoform, or with tags, fused parts or gaps G12C): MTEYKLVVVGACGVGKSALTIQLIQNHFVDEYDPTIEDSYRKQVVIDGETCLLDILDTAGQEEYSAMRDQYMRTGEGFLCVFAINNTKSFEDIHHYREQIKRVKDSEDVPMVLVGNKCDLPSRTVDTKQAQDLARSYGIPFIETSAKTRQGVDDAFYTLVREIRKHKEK
Chain of K-Ras G12C (P62937 whole entry): as the sequence (P62937 whole entry) above

| SMILES | IC50 (K-Ras G13C; [1]) | IC50 (K-Ras G13C; with Cyclophilin A, BRAF RBD, read-out: FRET (K-Ras G13C) IC50) | IC50 (KRAS G12D) | IC50 (NRAS G12C) | IC50 (KRAS G13D) | IC50 (KRAS G12S) | IC50 (KRAS Q61H) | IC50 (KRAS G12V) | IC50 (NRAS WT) | IC50 (NCI-H358 (K-Ras G12C); read-out: H358 Cell Viability (K-Ras G12C) IC50, uM, NCI-H358, 5-day treatment) | IC50 (NRAS Q61R) | IC50 (KRAS WT) | IC50 (K-Ras G12C; [2]) | IC50 (K-Ras G12C; with Cyclophilin A, BRAF RBD, read-out: FRET (K-Ras G12C) IC50) | IC50 (NCI-H358 (K-Ras G12C); [3]) |
| --- | --- | --- | --- | --- | --- | --- | --- | --- | --- | --- | --- | --- | --- | --- | --- |
| C=CC(=O)N1CC[C@H](C(=O)N(C)[C@H](C(=O)N[C@H]2Cc3cc(O)cc(c3)-c3ccc4c(c3)c(c(-c3cccnc3)n4[C@H](C)C#N)CC(C)(C)COC(=O)[C@@H]3CCCN(N3)C2=O)C(C)C)C1 [Example A193] | 1000 to 10000 nM | 10200 nM | > 10 µM | 100 to 1000 nM | 1 to 10 µM | 100 to 1000 nM | 100 to 1000 nM | 100 to 1000 nM | 1 to 10 µM | 0.054 µM | 1 to 10 µM | 1 to 10 µM | 10 to 100 nM | 295 nM |  |
| C=CC(=O)N1CC[C@H](C(=O)N(C)[C@H](C(=O)N[C@H]2Cc3cc(O)cc(c3)-c3ccc4c(c3)c(c(-c3c(C)cccc3C)n4CC)CC(C)(C)COC(=O)[C@@H]3CCCN(N3)C2=O)C(C)C)C1 [Example A226] | > 10000 nM |  | > 10 µM | 100 to 1000 nM | > 10 µM | 1000 to 10000 nM | 1000 to 10000 nM | 1000 to 10000 nM | > 10 µM |  | > 10 µM | > 10 µM | 100 to 1000 nM |  | 0.1 to 1 µM |
| C=CC(=O)N1CC[C@H](C(=O)N(C)[C@H](C(=O)N[C@H]2Cc3cc(O)cc(c3)-c3ccc4c(c3)c(c(-c3cccc5c3COC5)n4CC)CC(C)(C)COC(=O)[C@@H]3CCCN(N3)C2=O)C(C)C)C1 [Example A227] | 1000 to 10000 nM |  | > 10 µM | 100 to 1000 nM | > 10 µM | 1000 to 10000 nM | 1000 to 10000 nM | 1000 to 10000 nM | 1 to 10 µM |  | > 10 µM | 1 to 10 µM | 100 to 1000 nM |  | 0.1 to 1 µM |
| C=CC(=O)N1CC[C@H](C(=O)N(C)[C@H](C(=O)N[C@H]2Cc3cc(O)cc(c3)-c3ccc4c(c3)c(c(-c3cnc(N(C)C)s3)n4CC)CC(C)(C)COC(=O)[C@@H]3CCCN(N3)C2=O)C(C)C)C1 [Example A302] | 100 to 1000 nM |  | > 10 µM | 100 to 1000 nM | 1 to 10 µM | 1000 to 10000 nM | 1000 to 10000 nM | 1000 to 10000 nM | > 10 µM |  | > 10 µM | 1 to 10 µM | 100 to 1000 nM |  | 0.01 to 0.1 µM |
| C=CC(=O)N1CC[C@H](C(=O)N(C)[C@H](C(=O)N[C@H]2Cc3cc(O)cc(c3)-c3ccc4c(c3)c(c(-c3csc(N(C)C)n3)n4CC)CC(C)(C)COC(=O)[C@@H]3CCCN(N3)C2=O)C(C)C)C1 [Example A303] | > 10000 nM |  | > 10 µM | 1000 to 10000 nM | > 10 µM | > 10000 nM | 1000 to 10000 nM | > 10000 nM | > 10 µM |  | > 10 µM | > 10 µM | 1000 to 10000 nM |  | 0.1 to 1 µM |
| C=CC(=O)N1CCOC2(CCN(C(=O)N(C)[C@H](C(=O)N[C@H]3C[C@H]4CN(CCO4)c4ccc5c(c4)c(c(-c4cccnc4[C@H](C)OC)n5CC)CC(C)(C)COC(=O)[C@@H]4CCCN(N4)C3=O)C(C)C)CC2)C1 [Example A564] | 10 to 100 nM |  | 1 to 10 µM | 100 to 1000 nM | 1 to 10 µM | 100 to 1000 nM | 100 to 1000 nM | 100 to 1000 nM | 0.1 to 1 µM |  | 1 to 10 µM | 0.1 to 1 µM | 100 to 1000 nM |  | 0.01 to 0.1 µM |
| CCn1c(-c2cccnc2[C@H](C)OC)c2c3cc(ccc31)-c1cccc(c1)CC(NC(=O)[C@H](C(C)C)N1CC[C@]3(CCN(C(=O)C#C[C@@H]4COCCN4C4COC4)C3)C1=O)C(=O)N1CCC[C@H](N1)C(=O)OCC(C)(C)C2 (some centres unmarked) [Example A565] | 1000 to 10000 nM |  | > 10 µM | 100 to 1000 nM | > 10 µM | 1000 to 10000 nM | 1000 to 10000 nM | 1000 to 10000 nM | > 10 µM |  | > 10 µM | > 10 µM | 100 to 1000 nM |  | 0.01 to 0.1 µM |
| C=CC(=O)N1CC[C@H](C(=O)N(C)[C@H](C(=O)N[C@H]2Cc3cccc(c3)-c3ccc4c(c3)c(c(-c3cccnc3[C@H](C)OC)n4CC)CC(C)(C)COC(=O)[C@@H]3CCCN(N3)C2=O)C(C)C(F)(F)F)C1 (some centres unmarked) [Example A641] | 1000 to 10000 nM |  | > 10 µM | 100 to 1000 nM | 1 to 10 µM | 1000 to 10000 nM | 1000 to 10000 nM | 1000 to 10000 nM | 1 to 10 µM |  | 1 to 10 µM | 1 to 10 µM | 100 to 1000 nM |  | 0.01 to 0.1 µM |
| CCn1c(-c2cccnc2[C@H](C)OC)c2c3cc(ccc31)C1CCCN(C1)C[C@H](NC(=O)[C@@H](COC1CN(C(=O)C#CC(C)(C)N(C)C)C1)C(C)C)C(=O)N1CCC[C@H](N1)C(=O)OCC(C)(C)C2 [Example A646, (2R)-2-(((1-(4-(dimethylamino)-4-methylpent-2-ynoyl)azetidin-3-yl)oxy)methyl)-N-((6^3S,4S)-1^1-ethyl-1^2-(2-((S)-1-methoxyethyl)pyridin-3-yl)-10,10-dimethyl-5,7-dioxo-6^1,6^2,6^3,6^4,6^5,6^6-hexahydro-1^1H-8-oxa-1(5,3)-indola-6(1,3)-pyridazina-2(3,1)-piperidinacycloundecaphane-4-yl)-3-methylbutanamide] | > 10000 nM |  | > 10 µM | 10 to 100 nM | > 10 µM | > 10000 nM | > 10000 nM | > 10000 nM | > 10 µM |  | > 10 µM | > 10 µM | 10 to 100 nM |  | 0.01 to 0.1 µM |
| C=CC(=O)C1CC[C@H](C(=O)N(C)[C@H](C(=O)N[C@H]2Cc3nsc(n3)-c3ccc4c(c3)c(c(-c3cccnc3[C@H](C)OC)n4CC)CC(C)(C)COC(=O)[C@@H]3CCCN(N3)C2=O)C(C)C)C1 (some centres unmarked) [Example A694] | 100 to 1000 nM |  | 1 to 10 µM | 100 to 1000 nM | 1 to 10 µM | 1000 to 10000 nM | 100 to 1000 nM | 1000 to 10000 nM | 1 to 10 µM |  | 1 to 10 µM | 1 to 10 µM | 100 to 1000 nM |  | 0.01 to 0.1 µM |
